Test results taken from the supplement of paper PMC10307832.

Key:
Assay in all cases: relative viability (nuclei count vs DMSO), 5 days (fraction); higher = more cells survive
NCI-H1755 = system: NCI-H1755
In short: (§1)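 Relative viability is defined as nuclei in treated wells over nuclei in vehicle wells. Duplicate plates were run and medians reported. Lung cancer cell lines in 1536-well plates were dosed by pin tool one day after seeding, with one drug or with a fixed anchor-drug dose plus five library-drug doses (not always all listed) in √10 steps, and nuclei were counted after 5 days.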

NCI-H3122 = system: NCI-H3122
In short: as §1

NCI-H1355 = system: NCI-H1355
In short: as §1

NCI-H1915 = system: NCI-H1915
In short: as §1

SW 900 = system: SW 900
In short: as §1

NCI-H322M = system: NCI-H322M
In short: as §1

NCI-H522 = system: NCI-H522
In short: as §1

NCI-H1792 = system: NCI-H1792
In short: as §1

PC-14 = system: PC-14
In short: as §1

NCI-H2347 = system: NCI-H2347
In short: as §1

SK-MES-1 = system: SK-MES-1
In short: as §1

NCI-H1651 = system: NCI-H1651
In short: as §1

NCI-H661 = system: NCI-H661
In short: as §1

NCI-H441 = system: NCI-H441
In short: as §1

NCI-H596 = system: NCI-H596
In short: as §1

NCI-H727 = system: NCI-H727
In short: as §1

LXF-289 = system: LXF-289
In short: as §1

NCI-H520 = system: NCI-H520
In short: as §1

LCLC-103H = system: LCLC-103H
In short: as §1

NCI-H460 = system: NCI-H460
In short: as §1

RERF-LC-KJ = system: RERF-LC-KJ
In short: as §1

## Cc1sc2c(c1C)C(c1ccc(Cl)cc1)=N[C@@H](CC(=O)OC(C)(C)C)c1nnc(C)n1-2 [JQ1] + O=C(c1cc(Cc2n[nH]c(=O)c3ccccc23)ccc1F)N1CCN(C(=O)C2CC2)CC1 [Olaparib] (partner 8 µM)
NCI-H1755; first compound 0.04 µM
  relative viability: 0.887
NCI-H1755; first compound 0.1265 µM
  relative viability: 0.824
NCI-H1755; first compound 0.4 µM
  relative viability: 0.806
NCI-H1755; first compound 1.265 µM
  relative viability: 0.644
NCI-H1755; first compound 4 µM
  relative viability: 0.611
NCI-H3122; first compound 0.04 µM
  relative viability: 0.558
NCI-H3122; first compound 0.1265 µM
  relative viability: 0.586
NCI-H3122; first compound 0.4 µM
  relative viability: 0.494
NCI-H3122; first compound 1.265 µM
  relative viability: 0.485
NCI-H3122; first compound 4 µM
  relative viability: 0.276
NCI-H1355; first compound 0.04 µM
  relative viability: 0.626
NCI-H1355; first compound 0.1265 µM
  relative viability: 0.697
NCI-H1355; first compound 0.4 µM
  relative viability: 0.643
NCI-H1355; first compound 1.265 µM
  relative viability: 0.403
NCI-H1355; first compound 4 µM
  relative viability: 0.344
NCI-H1915; first compound 0.04 µM
  relative viability: 0.23
NCI-H1915; first compound 0.4 µM
  relative viability: 0.184
NCI-H1915; first compound 1.265 µM
  relative viability: 0.138
NCI-H1915; first compound 4 µM
  relative viability: 0.107
SW 900; first compound 0.04 µM
  relative viability: 0.862
SW 900; first compound 0.1265 µM
  relative viability: 0.739
SW 900; first compound 0.4 µM
  relative viability: 0.479
SW 900; first compound 1.265 µM
  relative viability: 0.303
SW 900; first compound 4 µM
  relative viability: 0.22
NCI-H322M; first compound 0.04 µM
  relative viability: 0.597
NCI-H322M; first compound 0.1265 µM
  relative viability: 0.933
NCI-H322M; first compound 0.4 µM
  relative viability: 0.654
NCI-H322M; first compound 1.265 µM
  relative viability: 0.536
NCI-H322M; first compound 4 µM
  relative viability: 0.461
NCI-H522; first compound 0.04 µM
  relative viability: 0.577
NCI-H522; first compound 0.1265 µM
  relative viability: 0.674
NCI-H522; first compound 0.4 µM
  relative viability: 0.453
NCI-H522; first compound 1.265 µM
  relative viability: 0.388
NCI-H522; first compound 4 µM
  relative viability: 0.344
NCI-H1792; first compound 0.04 µM
  relative viability: 0.378
NCI-H1792; first compound 0.1265 µM
  relative viability: 0.266
NCI-H1792; first compound 0.4 µM
  relative viability: 0.392
NCI-H1792; first compound 1.265 µM
  relative viability: 0.139
NCI-H1792; first compound 4 µM
  relative viability: 0.0406
PC-14; first compound 0.04 µM
  relative viability: 0.271
PC-14; first compound 0.1265 µM
  relative viability: 0.153
PC-14; first compound 0.4 µM
  relative viability: 0.14
PC-14; first compound 1.265 µM
  relative viability: 0.0655
PC-14; first compound 4 µM
  relative viability: 0.0723
NCI-H2347; first compound 0.04 µM
  relative viability: 0.544
NCI-H2347; first compound 0.1265 µM
  relative viability: 0.557
NCI-H2347; first compound 0.4 µM
  relative viability: 0.477
NCI-H2347; first compound 1.265 µM
  relative viability: 0.435
NCI-H2347; first compound 4 µM
  relative viability: 0.409
SK-MES-1; first compound 0.04 µM
  relative viability: 0.671
SK-MES-1; first compound 0.1265 µM
  relative viability: 0.606
SK-MES-1; first compound 0.4 µM
  relative viability: 0.385
SK-MES-1; first compound 1.265 µM
  relative viability: 0.208
SK-MES-1; first compound 4 µM
  relative viability: 0.209
NCI-H1651; first compound 0.04 µM
  relative viability: 0.175
NCI-H1651; first compound 0.1265 µM
  relative viability: 0.173
NCI-H1651; first compound 0.4 µM
  relative viability: 0.151
NCI-H1651; first compound 1.265 µM
  relative viability: 0.132
NCI-H1651; first compound 4 µM
  relative viability: 0.136
NCI-H661; first compound 0.04 µM
  relative viability: 0.75
NCI-H661; first compound 0.1265 µM
  relative viability: 0.709
NCI-H661; first compound 0.4 µM
  relative viability: 0.781
NCI-H661; first compound 1.265 µM
  relative viability: 0.536
NCI-H661; first compound 4 µM
  relative viability: 0.427
NCI-H441; first compound 0.04 µM
  relative viability: 0.612
NCI-H441; first compound 0.1265 µM
  relative viability: 0.523
NCI-H441; first compound 0.4 µM
  relative viability: 0.256
NCI-H441; first compound 1.265 µM
  relative viability: 0.17
NCI-H441; first compound 4 µM
  relative viability: 0.17
NCI-H596; first compound 0.04 µM
  relative viability: 0.618
NCI-H596; first compound 0.1265 µM
  relative viability: 0.499
NCI-H596; first compound 0.4 µM
  relative viability: 0.367
NCI-H596; first compound 1.265 µM
  relative viability: 0.326
NCI-H596; first compound 4 µM
  relative viability: 0.321
NCI-H727; first compound 0.04 µM
  relative viability: 0.668
NCI-H727; first compound 0.1265 µM
  relative viability: 0.759
NCI-H727; first compound 0.4 µM
  relative viability: 0.599
NCI-H727; first compound 1.265 µM
  relative viability: 0.555
NCI-H727; first compound 4 µM
  relative viability: 0.497
LXF-289; first compound 0.04 µM
  relative viability: 0.99
LXF-289; first compound 0.1265 µM
  relative viability: 1.06
LXF-289; first compound 0.4 µM
  relative viability: 0.744
LXF-289; first compound 1.265 µM
  relative viability: 0.47
LXF-289; first compound 4 µM
  relative viability: 0.258
NCI-H520; first compound 0.04 µM
  relative viability: 0.285
NCI-H520; first compound 0.1265 µM
  relative viability: 0.298
NCI-H520; first compound 0.4 µM
  relative viability: 0.251
NCI-H520; first compound 1.265 µM
  relative viability: 0.165
NCI-H520; first compound 4 µM
  relative viability: 0.156
LCLC-103H; first compound 0.04 µM
  relative viability: 0.789
LCLC-103H; first compound 0.1265 µM
  relative viability: 0.714
LCLC-103H; first compound 0.4 µM
  relative viability: 0.605
LCLC-103H; first compound 1.265 µM
  relative viability: 0.528
LCLC-103H; first compound 4 µM
  relative viability: 0.432
NCI-H460; first compound 0.04 µM
  relative viability: 0.43
NCI-H460; first compound 0.1265 µM
  relative viability: 0.336
NCI-H460; first compound 0.4 µM
  relative viability: 0.179
NCI-H460; first compound 1.265 µM
  relative viability: 0.124
NCI-H460; first compound 4 µM
  relative viability: 0.0676
RERF-LC-KJ; first compound 0.04 µM
  relative viability: 0.904
RERF-LC-KJ; first compound 0.1265 µM
  relative viability: 0.808
RERF-LC-KJ; first compound 0.4 µM
  relative viability: 0.669
RERF-LC-KJ; first compound 1.265 µM
  relative viability: 0.42
RERF-LC-KJ; first compound 4 µM
  relative viability: 0.338
